Assay results taken from patent US11040981B2, “Pyrrolotriazine compounds and methods of inhibiting TAM kinases” (Syros Pharmaceuticals, Inc., priority 2017, dated 2021).

Key:
[1] = biological target: T1, AXL (Homo sapiens, UniProt P30530); experiment: TR-FRET kinase activity assay, AXL; format: biochemical; conditions: ATP at Km, 60 minutes
T1 sequence (P30530 26-894): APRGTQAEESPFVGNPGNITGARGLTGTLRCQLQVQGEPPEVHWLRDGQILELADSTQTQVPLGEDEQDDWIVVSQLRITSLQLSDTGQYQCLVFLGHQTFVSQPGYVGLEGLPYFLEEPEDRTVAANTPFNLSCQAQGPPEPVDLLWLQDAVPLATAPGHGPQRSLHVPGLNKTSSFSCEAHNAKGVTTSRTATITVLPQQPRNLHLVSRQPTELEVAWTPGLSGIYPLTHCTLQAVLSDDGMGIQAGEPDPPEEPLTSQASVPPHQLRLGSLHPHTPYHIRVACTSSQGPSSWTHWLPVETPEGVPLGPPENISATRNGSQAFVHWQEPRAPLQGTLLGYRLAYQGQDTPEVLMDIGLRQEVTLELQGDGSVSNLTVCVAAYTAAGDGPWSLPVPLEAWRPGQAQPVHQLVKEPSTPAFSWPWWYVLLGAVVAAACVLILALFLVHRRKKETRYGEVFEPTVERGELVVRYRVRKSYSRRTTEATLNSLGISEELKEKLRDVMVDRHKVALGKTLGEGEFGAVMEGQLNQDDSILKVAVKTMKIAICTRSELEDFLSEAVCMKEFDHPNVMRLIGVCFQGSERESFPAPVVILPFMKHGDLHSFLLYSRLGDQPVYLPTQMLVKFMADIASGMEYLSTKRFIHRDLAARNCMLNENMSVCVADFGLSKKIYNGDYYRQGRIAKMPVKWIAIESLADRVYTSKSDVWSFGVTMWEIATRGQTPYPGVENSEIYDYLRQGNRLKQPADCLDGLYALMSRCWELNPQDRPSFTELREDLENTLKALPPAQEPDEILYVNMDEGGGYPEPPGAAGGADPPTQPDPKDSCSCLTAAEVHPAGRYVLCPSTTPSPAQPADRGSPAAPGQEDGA
Summary of the method: (§1)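 Enzyme + labelled peptide + cpd premixed; ATP at per-enzyme Km starts rxn. 60 min RT, HEPES pH 7.5/MgCl2/EGTA/Brij 35/DTT buffer. Stop 12.5 mM EDTA, Eu phospho-Ab 30 min dark, TR-FRET read → IC50.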

[2] = biological target: T2, TYRO3 (Homo sapiens, UniProt Q06418); experiment: TR-FRET kinase activity assay, TYRO3; format: biochemical; conditions: ATP at Km, 60 minutes
T2 sequence (Q06418 41-890): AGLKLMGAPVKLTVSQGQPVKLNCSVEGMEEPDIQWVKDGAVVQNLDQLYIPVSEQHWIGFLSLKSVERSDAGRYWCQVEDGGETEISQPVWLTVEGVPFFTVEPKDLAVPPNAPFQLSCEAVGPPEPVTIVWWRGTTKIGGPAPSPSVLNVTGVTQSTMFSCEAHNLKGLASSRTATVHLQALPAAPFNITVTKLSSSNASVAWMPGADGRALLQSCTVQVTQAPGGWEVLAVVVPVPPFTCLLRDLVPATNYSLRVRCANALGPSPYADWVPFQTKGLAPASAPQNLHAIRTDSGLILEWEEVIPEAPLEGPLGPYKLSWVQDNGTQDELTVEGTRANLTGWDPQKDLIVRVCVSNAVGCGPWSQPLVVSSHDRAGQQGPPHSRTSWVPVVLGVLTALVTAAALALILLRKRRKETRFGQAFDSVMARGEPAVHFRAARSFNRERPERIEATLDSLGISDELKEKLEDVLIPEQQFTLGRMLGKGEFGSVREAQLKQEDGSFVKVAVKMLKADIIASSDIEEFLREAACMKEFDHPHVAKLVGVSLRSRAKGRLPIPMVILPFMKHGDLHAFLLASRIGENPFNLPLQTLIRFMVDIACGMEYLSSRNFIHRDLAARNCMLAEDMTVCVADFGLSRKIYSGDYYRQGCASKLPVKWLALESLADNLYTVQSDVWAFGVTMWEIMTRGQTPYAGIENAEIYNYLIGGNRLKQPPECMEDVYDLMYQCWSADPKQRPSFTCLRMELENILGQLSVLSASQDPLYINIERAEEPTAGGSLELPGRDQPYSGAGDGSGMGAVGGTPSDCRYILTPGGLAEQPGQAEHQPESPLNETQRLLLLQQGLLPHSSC
Summary of the method: as §1

SMILES: COC[C@H](C)Nc1ncc2c([C@H]3CC[C@H](C(=O)N4CC5(COC5)C4)CC3)cc([C@H]3CC[C@H](O)CC3)n2n1 [Compound 578]
- IC50 [1]: 100 to 1000 nM
- IC50 [2]: ≤ 100 nM
